This is an account of results in patent US9464064B2, “HCV helicase inhibitors and methods of use thereof” (University of Kansas, priority 2011, dated 2016).

The target in the experiment is T1, HCV NS3 helicase NS3h_1b(con1) (Hepatitis C virus genotype 1b, UniProt Q9WMX2).
T1 construct: truncated C-terminally His-tagged NS3 proteins lacking the N-terminal protease, called NS3h; His-tag (C); made in house
Briefly: MBHA screen of NCI mechanistic set library at 20 μM (percent inhibition, compound interference). It is filed as biochemical. The following applies: compounds at 20 μM; for Inh. (%) (Inhibition): calculated from Equation 1. An outline of the steps: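 Molecular beacon-based DNA unwinding assay; compounds screened at 20 μM in triplicate, with DMSO-only negative and 500 nM dT20 positive controls. Fluorescence (ex 643/em 670 nm) was read before and 30 min after adding ATP to 1 mM. Percent inhibition came from the change relative to DMSO controls; interference from pre-ATP fluorescence versus DMSO controls.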

The mark [1] stands for this setting: assay interference calculated with Equation 2 (fluorescence vs DMSO-only controls before ATP).
[2] abbreviates: MBHA with DNA substrate, assay interference calculated with Equation 2.

T1 sequence (Q9WMX2 1192-1657): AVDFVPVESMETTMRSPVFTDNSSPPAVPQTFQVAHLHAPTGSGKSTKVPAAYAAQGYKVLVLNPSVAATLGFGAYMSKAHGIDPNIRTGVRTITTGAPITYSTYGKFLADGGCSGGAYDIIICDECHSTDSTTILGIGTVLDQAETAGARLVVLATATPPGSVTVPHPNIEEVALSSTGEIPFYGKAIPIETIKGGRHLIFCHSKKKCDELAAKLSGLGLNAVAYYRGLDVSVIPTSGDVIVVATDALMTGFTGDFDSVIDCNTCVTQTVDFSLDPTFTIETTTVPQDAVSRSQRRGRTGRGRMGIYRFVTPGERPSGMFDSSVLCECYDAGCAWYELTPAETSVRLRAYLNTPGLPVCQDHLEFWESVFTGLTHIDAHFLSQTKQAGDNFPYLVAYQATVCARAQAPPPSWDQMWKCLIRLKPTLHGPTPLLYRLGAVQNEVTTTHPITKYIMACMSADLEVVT

`Oc1cc(-n2cccn2)c(O)cc1-n1cccn1` [Compound 645987]: the “Inh. (%) (Inhibition)” value (MBHA with a DNA substrate) is recorded as −7.0%. The “Int.* (Ratio) (Interference)” value under setting [1] is listed as 0.88 Ratio.
Turning to `CCOC(OC1=C(C#N)CCC1)C(C)[Se]c1ccccc1` (stereo not shown) [Compound 646189], under setting [2], the “Int.* (Ratio) (Interference)” value is 0.92 Ratio. Moreover, the “Inh. (%) (Inhibition)” value (MBHA with DNA substrate) is −1.0%.
As to `CCOC(OCC)C(CC)[Se]c1ccccc1[N+](=O)[O-]` (stereo not shown) [Compound 646200], the “Inh. (%) (Inhibition)” value (MBHA with a DNA substrate) is −3.7%. The “Int.* (Ratio) (Interference)” value under setting [1] was 1.14 Ratio.
Turning to `COc1cc(/C=C(\OC(C)=O)c2ccc3c(c2)OCO3)cc(OC)c1OC` [Compound 647363], under setting [2], the “Int.* (Ratio) (Interference)” value is 0.93 Ratio. For the same compound, under “MBHA with DNA substrate”, the “Inh. (%) (Inhibition)” value was −17.1%.
For the compound `CN/N=C(\C)C(CN1CCCCC1)C(C1=C(O)c2ccccc2OC1)c1ccccc1.Cl` (stereo not shown) [Compound 647418], under “MBHA with a DNA substrate”, the “Inh. (%) (Inhibition)” value is −24.7%. Also, the “Int.* (Ratio) (Interference)” value under setting [1] is 1.00 Ratio.
On to `O=C1Oc2ccccc2C1C/C(=N\Nc1ccccc1)c1ccccc1O` (stereo not shown) [Compound 647613], for which the “Int.* (Ratio) (Interference)” value under setting [2] is on record as 0.91 Ratio. Further, the “Inh. (%) (Inhibition)” value (MBHA with DNA substrate) is on record as 23.5%.
On to `CN(C)[C@H]1CCC2[C@@H]3CCC4C[C@@H](NC(=O)NC(Cc5ccccc5)c5nccs5)CC[C@]4(C)C3CC[C@@]21C` (stereo partly shown) [Compound 647889], for which the “Int.* (Ratio) (Interference)” value under setting [2] is 0.89 Ratio. Also, the “Inh. (%) (Inhibition)” value (MBHA with DNA substrate) is given as 1.6%.
`O=C(C=C1SCCS1)/C=C\c1ccc(Cl)cc1` [Compound 648320]: the “Inh. (%) (Inhibition)” value (MBHA with a DNA substrate) was −32.6%. Further, the “Int.* (Ratio) (Interference)” value under setting [1] was 1.08 Ratio.
In the same order, the values of `COc1cc(CC(=O)c2cc3c(cc2-c2ccccc2)OCO3)cc(OC)c1OC` [Compound 648419] are 8.6% and 0.90 Ratio.
For the compound `COc1cc(/C=C(\C)c2ccc3c(c2)OCO3)cc(OC)c1OC` [Compound 648422], the “Int.* (Ratio) (Interference)” value under setting [2] is 1.02 Ratio. Also, the “Inh. (%) (Inhibition)” value (MBHA with DNA substrate) was −17.5%.
Turning to `Cc1nc2c(o1)C(=O)c1ccccc1C2=Nc1ccccc1` [Compound 650573], the “Int.* (Ratio) (Interference)” value under setting [2] was 0.86 Ratio. In addition, under “MBHA with DNA substrate”, the “Inh. (%) (Inhibition)” value is −14.3%.
As to `Cc1ccc(S(=O)(=O)N2CCSCCSCCSCCSCC2)cc1` [Compound 650792], the “Int.* (Ratio) (Interference)” value under setting [2] is 0.86 Ratio. In addition, the “Inh. (%) (Inhibition)” value (MBHA with DNA substrate) is −1.2%.
In the same order, the values of `CCC(=O)OC1CCn2c1nc1c2C(=O)C(C)=C(N2CC2)C1=O` (stereo not shown) [Compound 651079] are 1.05 Ratio and −16.7%.
In the case of `CC1=C(N2CC2)C(=O)c2nc3n(c2C1=O)CCC3OC(=O)CCl` (stereo not shown) [Compound 651080], where the note is “MBHA with a DNA substrate”, the “Inh. (%) (Inhibition)” value is −4.4%. Also, the “Int.* (Ratio) (Interference)” value under setting [1] is 0.85 Ratio.
As to `COCC(=O)OC1CCn2c1nc1c2C(=O)C(C)=C(NC(C)=O)C1=O` (stereo not shown) [Compound 651084], the “Inh. (%) (Inhibition)” value (MBHA with a DNA substrate) is on record as 8.1%. Further, under setting [1], the “Int.* (Ratio) (Interference)” value is reported as 0.95 Ratio.
With `COc1ccc(/C=C2/C(=O)N(C(=O)c3ccccc3O)N=C2C)cc1` [Compound 652174], the “Int.* (Ratio) (Interference)” value under setting [2] is reported as 0.87 Ratio. In addition, for the setting “MBHA with DNA substrate”, the “Inh. (%) (Inhibition)” value is on record as 33.4%.
Turning to `OCc1ccc(-c2ccc(-c3ccc(CO)s3)o2)s1` [Compound 652287], the “Inh. (%) (Inhibition)” value (MBHA with a DNA substrate) is given as −5.4%. Moreover, the “Int.* (Ratio) (Interference)” value under setting [1] is reported as 0.98 Ratio.
On to `OCCNCN(CNCCO)c1nc(N(CNCCO)CNCCO)nc(N(CNCCO)CNCCO)n1` [Compound 653000], for which, under setting [2], the “Int.* (Ratio) (Interference)” value is 0.97 Ratio. Moreover, where the note is “MBHA with DNA substrate”, the “Inh. (%) (Inhibition)” value was 1.2%.
Consider `Cc1cc(=O)[nH]c(NN2C(Cl)C(=O)C2c2cccc([N+](=O)[O-])c2)n1` (stereo not shown) [Compound 653010], for which the “Int.* (Ratio) (Interference)” value under setting [2] is reported as 0.88 Ratio. Also, the “Inh. (%) (Inhibition)” value (MBHA with DNA substrate) is listed as 17.5%.
Take `Cc1cc(=O)[nH]c(NN2C(Cl)C(=O)C2c2cccc(Cl)c2)n1` (stereo not shown) [Compound 653012]: under setting [2], the “Int.* (Ratio) (Interference)” value is 0.91 Ratio. For the setting “MBHA with DNA substrate”, the “Inh. (%) (Inhibition)” value is recorded as 17.7%.
